Like-named read-outs stand apart in the source and are kept apart here.
Experiments:
Aβ42 [1] = biological target: T1, Aβ42 (Homo sapiens, UniProt P05067); assay: Circular dichroism (CD) spectroscopy of Aβ42 β-sheet formation; type: biochemical; conditions: Aβ42 15 µM, phosphate buffer
T1 construct: the amyloid-β 1-42 (Aβ42) peptide
Source text: Therefore, we investigated whether 04 treatment influences the structure of Aβ42 amyloid fibrils using circular dichroism (CD) spectroscopy (Ehrnhoefer, 2008).
Next, the conversion of unstructured Aβ42 monomers into β-sheet-rich early aggregates was investigated. The change in CD signal at 218 nm over the course of 3,000 s was monitored for 04-treated and untreated Aβ42 peptides.
A monoexponential data fit yielded a time constant of τ = 150 ± 40 s for O4-treated samples, while a time constant of τ = 350 ± 30 s was obtained for untreated samples.

Aβ42 [2] = biological target: T1, Aβ42; assay: Thioflavin T (ThT) seeding assay with 04-generated Aβ42 fibrils; type: biochemical; conditions: fibrils produced with equimolar or 5-fold excess 04, sonicated seeds 3 % v/v added to Aβ42 15 µM monomers
Source text: We also investigated whether 04-generated Aβ42 fibrils are indeed seeding-competent structures. Amyloid fibrils were produced in vitro in the presence and absence of 04 and added as seeds to an excess of unpolymerized Aβ42 monomers. The formation of β-sheet-rich amyloid fibrils was then monitored over time using a Thioflavin T (ThT) dye binding assay (LeVine, 1999). […] Thus, the β-sheet-rich Aβ42 fibrils produced in the presence of 04 are seeding-competent structures that efficiently promote amyloid fibrillogenesis.

Aβ42 [3] = biological target: T1, Aβ42; assay: SDS-PAGE (silver staining / immunoblotting) of Aβ42 aggregation products; type: biochemical
Procedure: 2.2.3. O4 promotes the formation of SDS-stable, protease-resistant protein aggregates. To investigate whether 04 treatment influences the stability of amyloid structures, we analyzed compound-treated Aβ42 aggregation reactions after 48 h with SDS-PAGE and silver staining (Fig. 3a). In the absence of 04, aggregation products resolved to monomers (-4 kDa), small oligomers (-10-12 and 14-16 kDa), medium-size oligomers (-100-150 kDa) and large aggregates (>250 kDa) in SDS gels, supporting previously published studies that Aβ42 monomers in vitro assemble into a heterogenous mixture of low and high molecular weight aggregate species (Bitan, 2003). However, in the presence of 04 an altered distribution of SDS-stable Aβ42 aggregate species was observed.
The effect of 04 on early aggregate species was also visible when treated and untreated Aβ42 preparations containing mainly small oligomers and protofibrils were analyzed after 24 h by SDS-PAGE and immunoblotting.
To investigate whether 04 treatment influences Aβ42 aggregate formation cell culture media were also analyzed by SDS-PAGE and silver staining (Fig. 9b). In-untreated samples, a relatively large amount of Aβ42 monomers (-4 kDa) and small oligomers (-12 kDa) was detected, while in 04 treated samples the concentration of these Aβ42 species was diminished.

Aβ42 oligomers = biological target: T2, Aβ42 oligomers (Homo sapiens, UniProt P05067); assay: Colorimetric dot blot binding assay on nitrocellulose membrane; conditions: for Kd: 04 0.4-200 µM, 15 min, read-out: apparent dissociation constant
T2 construct: the amyloid-β 1-42 (Aβ42) peptide
Procedure: 2.2.4. 04 converts small, unstable Aβ42 oligomers into larger SDS-stable protein aggregates. To examine whether 04 converts small Aβ42 oligomers into larger amyloid fibrils, we first tested whether the compound can bind to different types of preformed aggregate species. Peptide preparations highly enriched in Aβ42 monomers (Ehrnhoefer, 2008), spherical oligomers (Ma, 2006) or large amyloid fibrils (Ehrnhoefer, 2008) were produced and incubated with 04 for 15 minutes at room temperature. Then, samples were spotted onto a nitrocellulose membrane and after washing with buffer (non-denaturing conditions) 04 binding was examined. As 04 is a dye and blue in color its binding to amyloid aggregates can be detected colorimetrically (Fig. 3c).
Binding of 04 to Aβ42 oligomers was quantified colorimetrically (Fig. 5).

Aβ42 peptides [4] = biological target: T3, Aβ42 peptides (Homo sapiens, UniProt P05067); assay: Binding to Aβ42 10-mer peptide array and short peptides; conditions: dot blot, colorimetric, n = 4
T3 construct: made in house; spotted short peptides
Procedure: (§1) 2.2.5. 04 binds preferentially to hydrophobic regions in Aβ42 peptides. To define potential 04 binding regions in Aβ42 peptides an array of 33 synthetic peptides representing the complete Aβ42 sequence was prepared (Beutling, 2008) and probed for an interaction with the chemical compound. Each synthetic peptide was composed of 10 amino acids, which overlapped in sequence with the next peptide by 9 residues.
(§2) We next investigated whether the position of hydrophobic amino acids in the Aβ42 peptide sequence influences 04 binding. Two short peptides containing aromatic residues were synthesized (A: KLVFFAE, aa 16-22 of Aβ42 and B: EFAVFLK, a scrambled version of A) and 04 binding was quantified colorimetrically.

Aβ42 peptides [5] = assay: as above; conditions: 04 300 µM, 33 peptides overlapping by 9 residues, colorimetric
Procedure: as §1, §2

Aβ42 aggregates = biological target: T4, Aβ42 aggregates (Homo sapiens, UniProt P05067); assay: Dot blot assays of Aβ42 aggregates with antibodies 4G8, 6E10 and B10; type: biochemical; conditions: Aβ42 15 µM
T4 construct: the amyloid-β 1-42 (Aβ42) peptide
Procedure: 2.2.6. 04-generated amyloid fibrils have altered surface properties. We next examined whether 04 treatment influences the morphology of mature amyloid fibrils. […] of chemical compound and the resulting aggregates were analyzed with dot blot assays using the monoclonal antibodies 6E10 and 4G8, which specifically recognize amino acids 4-9 and 18-22 in Aβ42 peptides, respectively (Kim, 1988).
To confirm the observation that 04 alters surface properties of Aβ42 aggregates, we also examined whether 04-generated Aβ42 aggregates can be detected with the conformation specific antibody B10, which preferentially recognizes mature, β-sheet-rich amyloid fibrils and protofibrils, while monomers and low molecular oligomers are less efficiently detected (Habicht, 2007).

[6] = test system: SH-SY5Y neuroblastoma cells; assay: MTT assay of Aβ42 toxicity; type: cell-based; conditions: Aβ42 5 µM, different concentrations of 04, 48 h; Aβ42 alone ∼50% inhibition
Procedure: 2.2.8. 04-mediated acceleration of amyloidogenesis reduces Aβ42 toxicity in cell-based assays and brain slices. To study whether O4-mediated conversion of aggregation intermediates into stable amyloid fibrils influences Aβ42 toxicity, SH-SY5Y neuroblastoma cells were incubated for 48 h with soluble Aβ42 peptides and different concentrations of 04. Viability of cells was examined using a 3-(4,5-dimethylthiazol-2yl)-2,5-diphenyltetrazolium bromide (MTT) assay (Hansen, 1989).

T1 sequence (P05067 672-713 limits assumed): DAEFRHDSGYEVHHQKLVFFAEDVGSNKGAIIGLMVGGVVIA
T2 sequence (P05067 672-713 limits assumed): as above
T4 sequence (P05067 672-713 limits assumed): as above

## O=c1cc2oc3cc(O)c(-c4ccc(O)cc4O)cc3nc-2cc1-c1ccc(O)cc1O [Compound 04, 2,8-bis-(2,4-dihydroxyphenyl)-7-hydroxy-phenoxazin-3-one]
Aβ42 [1]; 04 75 µM, 37°C, monoexponential decay fit, control 350 ± 30 nm
  time constant τ of β-sheet formation (ellipticity at 218 nm): 150 ± 40 s
Aβ42 [1]; 04 75 µM, 37°C, monoexponential fit, untreated 350 ± 30 s
  time constant τ of β-sheet formation (CD signal at 218 nm): 150 ± 40 s
Aβ42 [1]; equimolar 04, 37°C
  CD spectra of Aβ42 fibrils: CD spectra characteristic of β-sheet-rich amyloid structures
Aβ42 [2]
  seeding competence of 04-generated Aβ42 fibrils (ThT fluorescence): accelerate amyloid polymerization
Aβ42 [3]; Aβ42 15 µM, 04 1.5-150 µM, 48 h, 37°C, cell-free
  distribution of SDS-stable Aβ42 aggregate species (SDS-PAGE, silver staining): the relative amount of medium-size, SDS-stable oligomers and large aggregates was increased, while the amount of monomers and small oligomers was decreased
Aβ42 [3]; SH-SY5Y culture media, Aβ42 5 µM, 04 5 µM or 25 µM, 48 h
  Aβ42 monomers and small oligomers in cell culture media (SDS-PAGE, silver staining): diminished
Aβ42 [3]; preformed Aβ42 oligomers 110 µM, 04 30, 100 and 300 µM, 24 h
  assembly of higher molecular weight Aβ42 aggregates (SDS-PAGE, immunoblotting): stimulates the assembly of SDS-stable, higher molecular weight Aβ42 aggregates in a concentration-dependent manner
Aβ42 oligomers; Aβ42 oligomers equivalent to monomer concentration 3 µM
  Kd: 50 ± 2 µM
Aβ42 oligomers; Aβ42 oligomers equivalent to monomer concentration 6 µM
  Kd: 25 ± 1 µM
Aβ42 oligomers; Aβ42 oligomers equivalent to monomer concentration 12 µM
  Kd: 3.5 ± 0.1 µM
Aβ42 oligomers; Aβ42 preparations 15 µM, 04 3, 15 and 75 µM, 15 min at room temperature, non-denaturing wash
  04 staining of Aβ42 monomers, oligomers and fibrils: readily stains oligomeric and fibrillar Aβ42 aggregates, while monomers were less efficiently detected
Aβ42 oligomers; cooperative binding model fitted to the oligomer binding data
  Hill coefficient n: 4
Aβ42 peptides [4]
  binding to peptide A (KLVFFAE, aa 16-22) and scrambled peptide B (EFAVFLK): readily interacts with peptide A but not with the control peptide B
Aβ42 peptides [5]
  binding to 10-mer peptide array of the Aβ42 sequence: most strongly interacts with Aβ42 peptides, which contain non-polar, hydrophobic amino acids
Aβ42 aggregates; 48 h at 37°C, increasing concentrations of 04
  B10 antibody binding to Aβ42 aggregates: reduced B10 binding ability
Aβ42 aggregates; 5 d at 37°C with or without 04, no such effect with 6E10
  recognition of Aβ42 aggregates by 4G8 antibody: less efficiently recognized by the 4G8 antibody
[6]
  Aβ42-caused inhibition of MTT reduction: suppressed in a concentration-dependent manner

From EP2508186A1, “Phenoxazinones or phenothiazones as inhibitors of amyloid formation” (Max-Delbrück-Centrum für Molekulare Medizin, priority 2011, dated 2012)
